How the values were obtained:
NF-κB activity = test: NF-κB luciferase reporter assay in MDA-MB-231 cells overexpressing Bcl-3; format: cell-based, human; details: for IC50: MDA-MB-231 overexpressing Bcl-3, 24 hrs then reporter 48 hrs, read-out: IC50 NF-κB activity
Method: For NF-κB luciferase assays, cells were seeded into clear bottom black 96-well plates (Corning Inc., Lowell, US) in antibiotic free culture media in appropriate density. After 24 hrs, cells were transfected with 10 ng of 3×κB luciferase plasmid and 10 ng of pcDNA3.1-Lacl plasmid per well. Empty pcDNA3.1 plasmid was also included to normalize the total weight of DNA transfected to 100 ng. For positive and negative controls respectively, 10 ng of pGL3control or pGL3basic were transfected in place of 3×KB luciferase plasmid. Transfection was carried out using Lipofectamine LTX reagents (Invitrogen, Paisley, UK).
After 48 hrs post-transfection with luciferase reporter plasmid, the media was aspirated and cells were lyzed using 50 μl/well of Glo-lysis buffer (Promega, Southampton, UK). The plate was left on a rocker for 20 min to facilitate complete cell lysis. Then, 20 μl of lysate from each well was removed and transferred into a new clear bottom black well plate for measuring LacZ activity as a transfection efficiency control and followed by addition of 20 ul/well of Beta-Glo substrate (Promega, Southampton, UK) and cultivation at room temperature for at least 20 min. Subsequently, 30 μl/well of Bright-Glo luciferase substrate (Promega, Southampton, UK) was added to the original plate and asses immediately for luminescence activity. The luminescence produced from either reaction was read using a Flurostar Optima plate reader (BMG tabtech, Bucks, UK).
The effect of Compound 1a on NF-κB activity was determined by NF-κB luciferase assay in MDA-MB-231 and HEK-293 cells overexpressing Bcl-3 and HEK-293 cells overexpressing p52. Cells were cultivated with Compound 1a over a range of molarities for 24 hrs before being transfected with NF-κB luciferase reporter plasmid for 48 hrs and analyzed for NF-κB activity.
The effect of selected analogues on NF-κB activity was determined by NF-KB luciferase assay in MDA-MB-231 cells. MDA-MB-231 Bcl-3 over-expressing cells were cultivated with compounds from series 1-3 at 1 μM concentration for 24 hrs before being transfected with NF-κB luciferase reporter plasmid for 48 hrs together with controls and analyzed for NF-κB activity.
Based on the results for the series of analogues, we have established dose response curve for selected analogues from series 1 (If), from series 2 (2a and 2c) and from series 3 (3a) over a range of molarities. MDA-MB-231 Bcl-3 WT cells were cultivated with selected compounds from series 1-3 over a range of molarities for 24 hrs before being transfected with NF-κB luciferase reporter plasmid for 48 hrs together with controls and analyzed for NF-κB activity (FIG. 7).

[1] = Cell Titre Blue viability assay, HEK-293; format: cell-based; details: human, HEK-293 cells, HEK-293, 10 μM, vs DMSO
Description: In all assays, a DMSO control was always used.

[2] = Cell Titre Blue viability assay, MDA-MB-231; details: human, MDA-MB-231 cells
Method: (§1) The viability of cells at experimental endpoints for particular assays was determined using the Cell Titre Blue reagent (Promega, Southampton, UK). This reagent measures the cellular metabolic activity using resazurin as an indicator dye. Viable cells, therefore metabolically active, will reduce resazurin into highly fluorescent resofurin. The resulting fluorescence levels are measured and indicate cell viability.
(§2) Cells were plated at low confluency into 96 well plates in 100 μl of complete growth media in triplicates and were incubated at 37° C. in 5% CO2 for the desired test exposure period. For each 100 μl of media in 96 well plates, 20 μl Cell Titre Blue reagent was added followed by incubation for an hour at 37° C. in 5% CO2. Fluorescence was then measured by setting excitation/emission wavelengths to 560/590 nm on a Flurostar Optima plate reader (BMG tabtech, Bucks, UK).
(§3) Cell toxicity was evaluated using the Cell Titre Blue viability assay over a range of molarities for 24 hrs.
(§4) Selected compounds were dissolved in DMSO and diluted to a highest concentration of 10 μM (0.1% DMSO). In all assays, a DMSO control was always used. Selected compounds were tested for cell toxicity in HEK-293 and MDA-MB-231 cells before being used in cell-based assays. Cell toxicity was evaluated using the Cell Titre Blue viability assay over a range of molarities for 24 hrs

MDA-MB-231 cells = details: 10 µM
Method: as §1, §2, §3, §4

| Structure (SMILES) | IC50 (NF-κB activity) [nM] | viability at 24 h, 10 µM [1] [%] | viability at 24 h, 10 µM [2] [%] | other results |
| --- | --- | --- | --- | --- |
| O=C(Nc1ccccc1C(=O)NCCN1CCOCC1)c1ccc(F)cc1F [Compound 1q, 2,4-difluoro-N-(2-[(2-morpholin-4-ylethyl)carbamoyl]phenyl) benzamide] | 989 | – | – | – |
| COc1cccc(C(=O)Nc2ccccc2C(=O)NCCN2CCOCC2)c1 [Compound 1e, 2-[(3-methoxybenzoyl)amino]-N-(2-morpholin-4-ylethyl)benzamide] | – | > 70 | > 70 | – |
| O=C(Nc1ccc(I)cc1C(=O)NCCN1CCOCC1)c1ccccc1F [Compound 3c, 2-[(2-fluorobenzoyl)amino]-5-iodo-N-(2-morpholin-4-ylethyl)benzamide] | – | – | – | effect on NF-κB activity (NF-κB activity; 1 μM, 24 hrs, MDA-MB-231 Bcl-3 over-expressing cells, vs DMSO control / Compound 1a): significant decrease in NF-κB activity |
| O=C(Nc1ccccc1C(=O)NCCN1CCOCC1)c1ccc([N+](=O)[O-])cc1 [Compound 1i, 2-[(4-nitrobenzoyl)amino]-N-(2-morpholin-4-ylethyl) benzamide] | – | – | – | cell viability (MDA-MB-231 cells): above 70% |
| O=C(Nc1ccccc1C(=O)NCCN1CCOCC1)c1ccc(F)cc1 [Compound 1c, 2-[(4-fluorobenzoyl)amino]-N-(2-morpholin-4-ylethyl)benzamide] | – | > 70 | > 70 | – |
| O=C(NCCN1CCOCC1)c1ccccc1NC(=O)c1ccccc1[N+](=O)[O-] [Compound 1g, 2-[(2-nitrobenzoyl)amino]-N-(2-morpholin-4-ylethyl)benzamide] | – | > 70 | > 70 | – |
| O=C(Nc1ccccc1C(=O)NCCN1CCOCC1)c1cc(F)cc(F)c1 [Compound 1o, 3,5-difluoro-N-(2-[(2-morpholin-4-ylethyl)carbamoyl]phenyl) benzamide] | 238 | – | – | – |
| O=C(NCCN1CCOCC1)c1ccccc1NC(=O)c1c(F)cccc1F [Compound 1p, 2,6-difluoro-N-(2-[(2-morpholin-4-ylethyl)carbamoyl]phenyl) benzamide] | 706 | – | – | – |
